The target in the series is T1, Aromatase (Homo sapiens, UniProt P11511).
T1 sequence (P11511 whole entry): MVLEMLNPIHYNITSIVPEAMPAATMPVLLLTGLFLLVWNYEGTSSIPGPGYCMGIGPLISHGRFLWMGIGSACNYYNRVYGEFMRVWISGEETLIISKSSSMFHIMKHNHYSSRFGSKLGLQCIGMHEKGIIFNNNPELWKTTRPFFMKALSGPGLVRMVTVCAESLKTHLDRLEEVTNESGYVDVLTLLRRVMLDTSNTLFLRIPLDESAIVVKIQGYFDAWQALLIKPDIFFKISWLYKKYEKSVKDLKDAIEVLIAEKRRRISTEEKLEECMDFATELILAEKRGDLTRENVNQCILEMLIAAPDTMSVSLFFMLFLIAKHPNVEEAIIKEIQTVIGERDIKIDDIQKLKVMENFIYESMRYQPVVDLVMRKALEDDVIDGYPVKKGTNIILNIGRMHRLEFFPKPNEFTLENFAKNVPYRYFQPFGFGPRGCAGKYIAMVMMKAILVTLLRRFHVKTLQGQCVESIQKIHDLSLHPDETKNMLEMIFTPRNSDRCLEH
The series is described as follows: Inhibition of human placental aromatase. As to conditions: for pIC50: human.

The term IC50 denotes the concentration that gives 50% inhibition. High values mean weaker potency, low ones greater potency. `C[C@]12CCC=C[C@@H]1CC[C@@H]1[C@@H]2CC[C@]2(C)[C@@H](O)CC[C@@H]12` came in with an IC50 of 30 µM and a pIC50 of -1.477 uM. The matching figures for `CC(=O)OC1=C2CC[C@@H]3[C@H](CC[C@]4(C)C(=O)CC[C@@H]34)[C@@]2(C)CCC1`: 0.66 µM and 0.18 uM. The matching figures for `C[C@]12CCC(=O)C(O)=C1CC[C@@H]1[C@@H]2CC[C@]2(C)OC(=O)CC[C@@H]12`: 1.85 µM and -0.267 uM. The matching figures for `C[C@H]1CCC[C@@]2(C)C1=CC[C@@H]1[C@@H]2CC[C@]2(C)C(=O)CC[C@@H]12`: 1.8 µM and -0.255 uM. With `C[C@]12CC[C@H]3[C@@H](C[C@@H](O)C4=CCCC[C@@]43CO)[C@@H]1CCC2=O`, the pIC50 stood at 0.027 uM. On the same count and under the same terms, the value for `C[C@]12CC[C@H]3O[C@H]3[C@@H]1CC[C@@H]1[C@@H]2CC[C@]2(C)C(=O)CC[C@@H]12` was 0.839 uM. Compound `CC[C@H]1CCC[C@@]2(C)C1=CC[C@@H]1[C@@H]2CC[C@]2(C)C(=O)CC[C@@H]12` registered an IC50 of 4.5 µM and a pIC50 of -0.653 uM. The matching figures for `C[C@]12CCCC(OC(=O)c3ccccc3)=C1CC[C@@H]1[C@@H]2CC[C@]2(C)C(=O)CC[C@@H]12`: 0.64 µM and 0.194 uM.

Take `CO[C@H]1CCC[C@@]2(CO)C1=CC[C@@H]1[C@@H]2CC[C@]2(C)C(=O)CC[C@@H]12`: the pIC50 is given as -2.176 uM. `CCCCCC(=O)OC1=C2CC[C@@H]3[C@H](CC[C@]4(C)C(=O)CC[C@@H]34)[C@@]2(C)CCC1` registered an IC50 of 1.8 µM and a pIC50 of -0.255 uM. With `C[C@]12CC[C@H]3[C@@H](CCC4=CCCC[C@@]43CO)[C@@H]1CCC2=O`, the pIC50 turned out to be 1.31 uM.

As to `CC(=O)OC1CCC[C@@]2(CO)C1=CC[C@@H]1[C@@H]2CC[C@]2(C)C(=O)CC[C@@H]12` (stereo partly drawn), it took 11 µM to reach half-maximal inhibition (IC50) and the pIC50 was -1.041 uM.

Turning to `CCCC(=O)OC1=C2CC[C@@H]3[C@H](CC[C@]4(C)C(=O)CC[C@@H]34)[C@@]2(C)CCC1`, 1.5 µM corresponded to half-maximal inhibition (IC50) and the pIC50 is given as -0.176 uM. `C[C@]12CC[C@H]3O[C@H]3[C@@H]1CC[C@@H]1[C@@H]2CC[C@]2(C)[C@@H](O)CC[C@@H]12` displayed an IC50 of 6.5 µM and a pIC50 of -0.813 uM. Compound `CC(=O)OC1CCC[C@@]2(C)C1=CC[C@@H]1[C@@H]2CC[C@]2(C)C(=O)CC[C@@H]12` (stereo partly drawn) registered a pIC50 of 0 uM.

`C[C@]12CC[C@@H](O)C(=O)[C@@H]1CC[C@@H]1[C@@H]2CC[C@]2(C)C(=O)CC[C@@H]12` yielded a pIC50 of 0.174 uM. With `C[C@]12CCC=C[C@@H]1CC[C@@H]1[C@@H]2CC[C@]2(C)C(=O)CC[C@@H]12`, the IC50 worked out at 0.225 µM and the pIC50 is 0.648 uM. The matching figures for `C[C@]12CC[C@H]3[C@@H](C[C@H](O)C4=CCCC[C@@]43CO)[C@@H]1CCC2=O`: 1 µM and -0.146 uM.

With `C[C@]12CC[C@H]3[C@@H](CC=C4CCCC[C@]43C)[C@@H]1CCC2=O`, 0.66 µM corresponded to half-maximal inhibition (IC50). This lies in the sub-micromolar range. On to `C[C@]12CCCC(=O)[C@@H]1CC[C@@H]1[C@@H]2CC[C@]2(C)C(=O)CC[C@@H]12`, for which the IC50 came out at 2.4 µM and the pIC50 is -0.38 uM.

The compound `C[C@]12CCC(=O)C(O)=C1CC[C@@H]1[C@@H]2CC[C@]2(C)C(=O)CC[C@@H]12` [FORMESTANE] came in with a pIC50 of 1.377 uM. In turn, `CCC[C@H]1CCC[C@@]2(C)C1=CC[C@@H]1[C@@H]2CC[C@]2(C)C(=O)CC[C@@H]12` gave an IC50 of 5.5 µM and a pIC50 of -0.74 uM. The matching figures for `CC(=O)OC1=C2CC[C@@H]3[C@H](CC[C@]4(C)C(=O)CC[C@@H]34)[C@@]2(CO)CCC1`: 3.6 µM and -0.556 uM.

The record behind these values is ChEMBL document CHEMBL1629480, “Molecular docking and QSAR study on steroidal compounds as aromatase inhibitors” (Eur J Med Chem, 2010).
